Data as given in ChEMBL document CHEMBL1201862, “PubChem BioAssay data set” (2004).
Active and inactive are the calls of the source.

Assays:
[1] = cells; assay type: functional, cell-based
[2] = molecular target: T1, Nuclear receptor subfamily 0 group B member 1 (Homo sapiens, UniProt P51843); assay type: functional, cell-based;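 also: HEK293T cells transfected with SF-1 and DAX-1 plus StAR promoter luciferase reporter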
T1 sequence (P51843 whole entry): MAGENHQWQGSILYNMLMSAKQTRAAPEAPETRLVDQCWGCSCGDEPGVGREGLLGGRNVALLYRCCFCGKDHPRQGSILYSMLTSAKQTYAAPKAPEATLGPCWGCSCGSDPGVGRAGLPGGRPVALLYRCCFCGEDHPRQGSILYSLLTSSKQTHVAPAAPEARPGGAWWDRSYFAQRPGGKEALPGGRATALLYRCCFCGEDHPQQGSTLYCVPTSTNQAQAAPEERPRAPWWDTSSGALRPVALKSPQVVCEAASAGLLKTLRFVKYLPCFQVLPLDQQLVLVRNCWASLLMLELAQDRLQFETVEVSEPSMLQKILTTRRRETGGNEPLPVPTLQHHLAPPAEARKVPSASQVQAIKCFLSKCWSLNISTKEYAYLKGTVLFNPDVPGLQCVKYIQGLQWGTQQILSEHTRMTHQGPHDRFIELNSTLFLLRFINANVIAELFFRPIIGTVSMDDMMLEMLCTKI

[3] = cells; assay type: functional, cell-based; remark: listed apart in the source
[4] = molecular target: T2, Trace amine-associated receptor 1 (Homo sapiens, UniProt Q96RJ0); experiment: Fluorescence-based cell-based high throughput dose response assay to identify agonists of the human trace amine associated receptor 1 (TAAR1).; assay type: functional
T2 sequence (Q96RJ0 whole entry): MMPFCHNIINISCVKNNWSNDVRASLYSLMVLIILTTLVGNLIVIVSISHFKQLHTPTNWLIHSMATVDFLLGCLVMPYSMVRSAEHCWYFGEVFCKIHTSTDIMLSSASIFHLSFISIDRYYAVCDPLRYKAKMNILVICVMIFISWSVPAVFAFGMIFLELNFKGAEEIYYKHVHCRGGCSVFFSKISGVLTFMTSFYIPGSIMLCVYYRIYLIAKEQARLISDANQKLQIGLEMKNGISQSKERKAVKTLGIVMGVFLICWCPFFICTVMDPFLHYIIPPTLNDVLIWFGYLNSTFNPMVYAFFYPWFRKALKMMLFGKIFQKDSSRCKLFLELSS

[5] = molecular target: T2, Trace amine-associated receptor 1; experiment: Counterscreen for agonists of the human trace amine associated receptor 1 (hTAAR1): Fluorescence-based cell-based high throughput dose response assay to identify hTAAR1 agonist that also desensitize TAAR1 receptor response.; assay type: functional
[6] = cells; assay type: functional, cell-based; remark: listed apart in the source
[7] = molecular target: T3, Small ubiquitin-related modifier 1 (Homo sapiens, UniProt P63165); experiment: inhibitors of SUMO1 peptide binding, dose response, biochemical, fluorescence polarization, uHTS hits (AID 624382); assay type: functional; conditions: read-out: IC50_Mean
T3 sequence (P63165 whole entry): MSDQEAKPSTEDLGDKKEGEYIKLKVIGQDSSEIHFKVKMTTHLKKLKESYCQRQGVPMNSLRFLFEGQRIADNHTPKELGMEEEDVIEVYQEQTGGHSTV

[8] = molecular target: T3, Small ubiquitin-related modifier 1; experiment: inhibitors of SUMO1 partner interactions, dose response, biochemical, FRET (AID 624383); assay type: functional; conditions: read-out: IC50_Mean
[9] = THP-1 cell cytotoxicity, dose response, cytotoxicity control for Vif-APOBEC3G degradation inhibitor project, THP-1 cells (AID 1117359); assay type: functional; conditions: Human immunodeficiency virus 1, THP-1
[10] = molecular target: Nuclear receptor subfamily 5 group A member 2 (Homo sapiens, UniProt O00482); assay type: functional, cell-based;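 also: HEK293T cells transfected with LRH-1 and a StAR promoter luciferase reporter; potency for inhibitors that lower LRH-1 driven reporter light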
Nuclear receptor subfamily 5 group A member 2, sequence (O00482 whole entry): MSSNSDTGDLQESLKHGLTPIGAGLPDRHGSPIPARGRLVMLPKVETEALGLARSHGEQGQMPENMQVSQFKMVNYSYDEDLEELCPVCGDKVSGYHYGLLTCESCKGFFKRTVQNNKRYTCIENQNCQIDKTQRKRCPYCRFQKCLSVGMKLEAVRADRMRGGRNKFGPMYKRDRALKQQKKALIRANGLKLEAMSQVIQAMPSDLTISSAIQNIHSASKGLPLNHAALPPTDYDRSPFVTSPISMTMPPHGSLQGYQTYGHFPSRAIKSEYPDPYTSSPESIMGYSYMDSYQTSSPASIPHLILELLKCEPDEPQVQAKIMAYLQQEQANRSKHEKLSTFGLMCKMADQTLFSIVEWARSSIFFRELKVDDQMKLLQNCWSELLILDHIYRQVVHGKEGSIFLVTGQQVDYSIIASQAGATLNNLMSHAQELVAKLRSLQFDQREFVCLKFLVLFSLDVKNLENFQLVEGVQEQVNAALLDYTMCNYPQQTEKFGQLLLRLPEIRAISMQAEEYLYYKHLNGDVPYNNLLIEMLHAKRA

[11] = molecular target: Steroidogenic factor 1 (Homo sapiens, UniProt Q13285); experiment: Counterscreen for inverse agonists of the liver receptor homolog-1 (LRH-1; NR5A2): Luminescence-based cell-based high throughput dose response assay to identify inverse agonists of the Steroidogenic Factor 1 Nuclear Receptor (SF1; NR5A1).; assay type: functional
Steroidogenic factor 1, sequence (Q13285 whole entry): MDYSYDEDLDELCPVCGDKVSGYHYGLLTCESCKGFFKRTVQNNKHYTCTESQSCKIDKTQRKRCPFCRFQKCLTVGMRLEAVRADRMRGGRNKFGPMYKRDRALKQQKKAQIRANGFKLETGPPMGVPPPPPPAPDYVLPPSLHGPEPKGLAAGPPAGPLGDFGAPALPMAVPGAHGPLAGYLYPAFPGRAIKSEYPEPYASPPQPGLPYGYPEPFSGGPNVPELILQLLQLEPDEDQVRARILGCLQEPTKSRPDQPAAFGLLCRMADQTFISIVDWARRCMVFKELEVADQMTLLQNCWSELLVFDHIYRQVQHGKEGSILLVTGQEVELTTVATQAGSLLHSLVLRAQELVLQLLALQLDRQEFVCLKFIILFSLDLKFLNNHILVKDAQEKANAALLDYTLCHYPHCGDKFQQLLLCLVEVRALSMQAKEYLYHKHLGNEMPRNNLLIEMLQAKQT

[12] = StAR promoter reporter inhibition counter-screen, dose response, counter-screen for LRH-1 inverse agonist project, cell-based, luminescence, luciferase reporter (AID 651969); assay type: functional
[13] = molecular target: Paired box protein Pax-8 (Homo sapiens, UniProt Q06710); experiment: inhibitors of PAX8-driven TPO luciferase reporter, dose response, RMG-I cells, cherry-pick (AID 687027); assay type: functional, cell-based;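 also: luciferase reporter driven by Pax8 target thyroperoxidase promoter measured by SteadyGlo luminescence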
Paired box protein Pax-8, sequence (Q06710 whole entry): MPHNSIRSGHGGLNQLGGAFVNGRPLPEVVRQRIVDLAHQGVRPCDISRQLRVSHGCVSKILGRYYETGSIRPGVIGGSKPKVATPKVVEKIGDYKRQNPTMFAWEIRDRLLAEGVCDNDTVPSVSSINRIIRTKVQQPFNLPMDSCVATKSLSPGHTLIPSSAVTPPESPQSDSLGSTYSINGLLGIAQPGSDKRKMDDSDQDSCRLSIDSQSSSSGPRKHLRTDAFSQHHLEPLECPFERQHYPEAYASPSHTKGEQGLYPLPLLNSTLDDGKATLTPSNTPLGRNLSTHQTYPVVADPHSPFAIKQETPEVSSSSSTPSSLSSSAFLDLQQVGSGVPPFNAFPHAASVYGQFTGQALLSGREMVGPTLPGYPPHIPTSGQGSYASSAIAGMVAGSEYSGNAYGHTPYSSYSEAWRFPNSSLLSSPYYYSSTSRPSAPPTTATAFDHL

[14] = cytotoxicity in OVCAR8 ovarian cancer cells, dose response, PAX8 project, cell-based, plate reader, dry powder samples (AID 743197); assay type: functional; conditions: OVCAR-8
[15] = IGROV1 ovarian cancer cell cytotoxicity, dose response, PAX8 inhibitor project, plate reader, dry powder samples (AID 743043); assay type: functional, cell-based; conditions: IGROV-1
[16] = P. falciparum 3D7-ScDHODH growth inhibitors, dose response, SYBR Green, dry powder samples (AID 1159570); assay type: functional, cell-based;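 also: parasite growth measured after 72 hours of compound exposure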
[17] = P. falciparum Dd2 growth inhibitors, dose response, SYBR Green, dry powder samples (AID 1159566); assay type: functional, cell-based;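 also: potency for growth inhibition with lower SYBR green DNA signal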
[18] = P. falciparum ATP4 D1247Y mutant growth inhibitors, dose response, NITD609-resistant line, SYBR Green, dry powder (AID 1159571); assay type: functional, cell-based;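 also: parasites synchronized at ring stage by sorbitol before testing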
[19] = molecular target: Nonstructural protein 1 (Influenza A virus, UniProt Q194T2); assay type: functional, Influenza A virus (A/California/07/2009(H1N1))
Nonstructural protein 1, sequence (Q194T2 whole entry): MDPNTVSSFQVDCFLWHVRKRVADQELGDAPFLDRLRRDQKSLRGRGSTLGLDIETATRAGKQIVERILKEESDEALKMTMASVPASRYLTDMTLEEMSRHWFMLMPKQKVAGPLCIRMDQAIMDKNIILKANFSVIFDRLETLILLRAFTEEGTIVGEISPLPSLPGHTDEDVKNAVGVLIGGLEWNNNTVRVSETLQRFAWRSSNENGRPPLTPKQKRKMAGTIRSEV

[20] = HeLa cell cytotoxicity, dose response, cytotoxicity control for MgcRacGAP inhibitor project (AID 624300); assay type: functional
[21] = molecular target: T4, Rac GTPase-activating protein 1 (Homo sapiens, UniProt Q9H0H5); experiment: MgcRacGAP GTPase-activating activity inhibitors, confirmation, biochemical, ADP Hunter fluorescence, primary and confirmatory (AID 624330); assay type: functional
T4 sequence (Q9H0H5 whole entry): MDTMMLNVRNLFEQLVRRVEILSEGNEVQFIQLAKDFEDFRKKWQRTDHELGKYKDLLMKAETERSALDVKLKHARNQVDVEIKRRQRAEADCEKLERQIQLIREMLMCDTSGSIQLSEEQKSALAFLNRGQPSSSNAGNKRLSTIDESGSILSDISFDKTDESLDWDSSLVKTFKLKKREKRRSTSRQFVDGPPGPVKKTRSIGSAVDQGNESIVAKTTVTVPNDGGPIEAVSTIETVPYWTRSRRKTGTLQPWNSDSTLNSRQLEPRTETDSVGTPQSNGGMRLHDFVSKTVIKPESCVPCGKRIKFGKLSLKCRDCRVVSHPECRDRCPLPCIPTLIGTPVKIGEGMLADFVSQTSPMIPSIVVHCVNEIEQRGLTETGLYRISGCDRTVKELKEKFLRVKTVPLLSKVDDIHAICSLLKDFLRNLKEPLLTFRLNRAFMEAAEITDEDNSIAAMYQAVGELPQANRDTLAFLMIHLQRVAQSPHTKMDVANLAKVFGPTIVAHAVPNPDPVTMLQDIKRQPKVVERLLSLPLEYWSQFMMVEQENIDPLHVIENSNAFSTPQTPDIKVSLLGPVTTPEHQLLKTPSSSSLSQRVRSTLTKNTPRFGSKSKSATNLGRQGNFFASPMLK

[22] = molecular target: T5, DNA repair protein RAD52 homolog (Homo sapiens, UniProt P43351); assay type: functional, biochemical
T5 sequence (P43351 whole entry): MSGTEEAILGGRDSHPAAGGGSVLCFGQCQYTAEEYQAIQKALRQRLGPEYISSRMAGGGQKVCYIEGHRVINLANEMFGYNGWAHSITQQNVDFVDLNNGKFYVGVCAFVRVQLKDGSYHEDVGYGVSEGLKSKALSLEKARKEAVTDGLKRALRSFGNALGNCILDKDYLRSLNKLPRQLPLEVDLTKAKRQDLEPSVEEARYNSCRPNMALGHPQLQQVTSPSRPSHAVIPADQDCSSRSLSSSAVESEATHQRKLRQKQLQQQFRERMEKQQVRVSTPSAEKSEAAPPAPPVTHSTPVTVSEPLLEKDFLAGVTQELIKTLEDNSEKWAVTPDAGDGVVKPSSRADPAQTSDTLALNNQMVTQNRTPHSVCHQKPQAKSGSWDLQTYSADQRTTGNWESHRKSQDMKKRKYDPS

For COc1ccc(C(CNC(=O)c2ccc(Cl)c(NC(=O)c3cccs3)c2)N2CCCC2)cc1 (stereo not given), the IC50 [1] was > 67.5 µM (inactive) and the IC50 [2] was > 67.5 µM (inactive).

For O=C(Nc1ccncc1)Nc1ccc(F)cc1, the IC50 [3] was > 29.9 µM (inactive), the EC50 [4] was 0.548 µM (active) and the IC50 [5] was 4.91 µM (active). For the same compound, the EC50 [6] was > 29.9 µM (inactive).

In the case of Cc1ccc(Cn2c(CCNc3nc(-c4ccc(C)cc4)cs3)nc3cc(C(=O)NCCCO)ccc32)cc1, the IC50 [7] is reported as > 66.6 µM (inactive) and the IC50 [8] is reported as 9.43 µM (active).

In the case of O=C(c1ccc(F)cc1)N1CCC(C(=O)N(Cc2ccccc2)c2ccccc2)CC1, the CC50 [9] is reported as > 40 µM (active).

In the case of CCc1cc(=O)oc2c(C)c(OCC(=O)NCCCN3CCOCC3)ccc12, the IC50 [10] is reported as 35.9 µM (inactive), the IC50 [11] is reported as 35.9 µM (inactive) and the IC50 [12] is reported as 35.9 µM (inactive).

In the case of CC(O)(c1cccnc1)c1nc(-c2cccc(C#N)c2)cs1 (stereo not given), the IC50 [10] is reported as 35.9 µM (inactive), the IC50 [11] is reported as 15.7 µM (inactive) and the IC50 [12] is reported as 35.9 µM (inactive).

With CC(=O)c1cccc(-c2ccnc3c2CC(C(=O)NCc2ccccc2)O3)c1 (stereo not given) the IC50 [1] was > 67.4 µM (inactive) and the IC50 [2] was > 67.4 µM (inactive).

With COc1cc(C(=O)c2cc3c(cc2C)OCO3)cc(OC)c1OC the IC50 [1] was > 67.5 µM (inactive) and the IC50 [2] was > 67.5 µM (inactive).

For C[C@@H]1CN([C@H](C)CO)C(=O)c2cc(NC(=O)Nc3ccc(F)cc3)ccc2O[C@@H](C)CCCCO[C@@H]1CN(C)Cc1ccc2c(c1)OCO2, the AC50 [13] was 10.9 µM (active) and the AC50 [14] was 58.6 µM (active).

In the case of C[C@H]1CCCCO[C@H](CN(C)C(=O)Nc2cccc3ccccc23)[C@@H](C)CN([C@@H](C)CO)C(=O)c2cc(NS(=O)(=O)c3ccc(Cl)cc3)ccc2O1, the AC50 [13] is reported as 4.51 µM (active), the AC50 [15] is reported as 55.2 µM (active) and the AC50 [14] is reported as > 70 µM (inactive).

In the case of CCOc1cccc(-c2c(C(=O)N/N=C/c3ccc(C)o3)nnn2-c2nonc2N)c1, the IC50 [3] is reported as > 29.9 µM (inactive), the EC50 [4] is reported as 3.78 µM (active) and the IC50 [5] is reported as 17.2 µM (inactive). For the same compound, the EC50 [6] was 19.4 µM (inactive).

For C[C@H](CO)N1C[C@H](C)[C@@H](CN(C)CC2CCCC2)Oc2ncc(C#CCc3ccccc3)cc2C1=O, the AC50 [16] was 3.18 µM (active), the AC50 [17] was 0.59 µM (active) and the AC50 [18] was 0.28 µM (active).

In the case of CCN(CC)CCNc1ccc(C)c2sc3ccc(O)cc3c(=O)c12, the IC50 [19] is reported as 19.7 µM (active), the CC50 [20] is reported as 31 µM (active) and the IC50 [21] is reported as 21.8 µM (active). For the same compound, the AC50 [22] was 0.655 µM (active).
